Test results from patent publication US20100062465A1, “Detection of Histone Deacetylase Inhibition” (priority 2006, published 2010).
Where a name gives a salt, the structure may show the parent alone.

Tests used:
PC3 cells = assay: GC-MS analysis of TFA in extracellular medium; assay type: cell-based, human
Source text: To assess build-up of TFA in medium, samples of extracellular medium were collected and analyzed using gas chromatography-mass spectroscopy (GC-MS). In order to be able to use standard capillary GC-MS, TFA had to be derivatized. This was done using a modification of the procedure of Scott et al. (Scott B F, Mactavish D, Spencer C, Strachan W M J, Muir D C G. Haloacetic acids in Canadian lake waters and precipitation. Environmental Science & Technology 2000;34:4266-72) as follows. One ml of sample, or TFA standard in medium, was treated with 20 mg NaCl, 60 μL HCl, and 30 μl each of 100 mM 1,3-dicyclohexylcarbohiimide (Sigma-Aldrich Chemical Co., MO. USA) and 2,4-difluoroaniline (Sigma-Aldrich Chemical Co., MO. USA) and adjusted to a final volume of 1.320 ml in ethyl acetate. Mixture was vortexed for 60 minutes at room temperature; an additional 50 mg of NaCl added and sample briefly vortexed. Following phase separation the organic layer was removed and stored. The aqueous phase was further extracted twice with 200 μl of ethyl acetate. All three ethyl acetate extracts were combined and treated with 50 μl 3M HCl and 50 μL saturated anhydrous sodium sulfate (Na2SO4), vortexed and another 20 mg of Na2SO4 added and mixed. The organic phase was then evaporated to dryness under a dry nitrogen gas stream. The residue was dissolved in 250 μL of toluene and transferred into sample vials for analysis. Three microliters of sample extract were analyzed using an Agilent 6890N GC coupled to 5973N MSD in splitless injection mode. TFA was resolved using a Supleco Omegawax 250 capillary column (30 m×0.25 mm). Column temperature was 100° C. for one minute, ramping to 230° C. at 25° C. per minute and then held at 230° C. for two minutes. Detection was performed in EI positive mode monitoring the m/z 225 ion.

recombinant HDAC8 = biological target: T1, recombinant HDAC8 (Homo sapiens, UniProt Q9BY41); assay: 19F MRS study of BLT cleavage by recombinant HDAC8; assay type: biochemical; conditions: 0.6 mM BLT, 28U HDAC-8
T1 construct: purchased Biomol
T1 sequence (Q9BY41 1-377): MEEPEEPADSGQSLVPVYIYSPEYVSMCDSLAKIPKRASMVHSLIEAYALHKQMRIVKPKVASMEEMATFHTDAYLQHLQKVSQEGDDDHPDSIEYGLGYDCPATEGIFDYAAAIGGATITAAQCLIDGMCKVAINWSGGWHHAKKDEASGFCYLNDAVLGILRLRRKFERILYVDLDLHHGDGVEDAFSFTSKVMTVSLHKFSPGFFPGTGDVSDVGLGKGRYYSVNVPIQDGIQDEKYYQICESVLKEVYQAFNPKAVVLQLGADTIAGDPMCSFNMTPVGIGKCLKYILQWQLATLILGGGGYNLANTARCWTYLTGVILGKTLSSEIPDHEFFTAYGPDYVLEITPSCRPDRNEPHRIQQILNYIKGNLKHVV
Procedure: To confirm that MRS can be used to monitor cleavage of the HDAC substrate, 0.6 mM BLT (Advance Chem-Tech, KY USA) was incubated alone or with 28U recombinant HDAC-8 (Biomol PA) in a total volume of 500 μl HDAC assay buffer (Biomol PA. USA, composed of 25 mM Tris/Cl, 137 mM NaCl, 2.7 mM KCl, 1 mM MgCl2 and formulated to maintain HDAC activity). ^19F MRS was used to monitor the decrease in BLT and buildup of the cleavage product trifluoroacetate (TFA) by acquiring ^1H decoupled spectra at 10 min intervals on an Avance DPX 300 Bruker spectrometer (Bruker Biospin, Germany) using a 30 deg. flip angle, 3 s relaxation delay and 128 scans. A sealed insert containing C6F6 served as a quantification and chemical shift reference (−164.9 ppm relative to CFCl3).

[1] = Solubility in growth medium; assay type: physicochemical; conditions: dissolved in DMSO first
Procedure: Note that controls were treated with DMSO in order to clearly identify effects which are due to the compound being investigated rather than its vehicle (DMSO). FSAHA dose was based on previous findings (Butler L M, Agus D B, Scher H I, et al. Suberoylanilide hydroxamic acid, an inhibitor of histone deacetylase, suppresses the growth of prostate cancer cells in vitro and in vivo. Cancer Res 2000 September 15;60(18):5165-70).

Hsp70 = assay: Western blot analysis of protein levels; assay type: cell-based, human; conditions: PC3 cells, 10 μM FSAHA in the presence of 1 mM BLT
Procedure: (§1) PC3 cells were lysed using cell lysis buffer (0.1% NP-40, 50 mM HEPES (pH 7.4), 250 mM NaCl, 1 mM dithiothreitol, 1 mM EDTA, 1 mM NaF, 10 mM β-glycerophosphate, 0.1 mM sodium orthovanadate, 1 μl/ml of protease inhibitor cocktail set III (Calbiochem, USA) and 1 mM phenylmethylsulfonyl fluoride). Lysates were centrifuged at 12,000 rpm for 10 min (4° C.), the protein supernatant collected and total protein concentrations determined using Biorad DC Protein assay reagents (Biorad, CA, USA). Proteins were separated by sodium do-decyl sulfate-polyacrylamide gel electrophoresis using 10% gels and transferred electrophoretically to 0.45 μm Nitrocellulose membranes. Membranes were blocked in blocking buffer containing 5% non-fat dry milk in Tris buffered saline (pH 7.6) and 0.1% Tween-20 and incubated overnight at 4° C. with primary antibodies as follows. c-Raf, 1:1000, (Cell Signaling Technology (CST), MA, USA), Cdk4, 1:2000 (CST, MA, USA), Hsp70, 1:2000 (Stressgen, Canada) and GAPDH, 1:5000 (Stressgen, Canada). This was followed by 1 hour incubation with horseradish peroxidase-conjugated secondary anti-rabbit (CST MA, USA) and anti-mouse (CST, MA, USA) antibodies at dilutions of 1:1000 and 1:2000 respectively. Membranes were […] with enhanced chemiluminescence reagents (LumiGLO & Peroxide, CST MA. USA) for 1 minute and exposed to hyperfilm (Amersham Biosciences, USA), which was developed on a Konica SRX-101 automatic developer (Konica, Tokyo, Japan).

c-Raf-1 = assay: Western blot analysis of protein levels; assay type: cell-based, human; conditions: PC3 cells, 10 μM FSAHA in the presence of 1 mM BLT
Procedure: as §1

cdk4 = assay: Western blot analysis of protein levels; assay type: cell-based, human; conditions: PC3 cells, 10 μM FSAHA in the presence of 1 mM BLT
Procedure: as §1

Row | Cleavage by recombinant HDAC8 monitored by 19F MRS (recombinant HDAC8) | Solubility in growth medium [1] | Compound | Level of TFA in cellular growth medium (PC3 cells; PC3 control cells, 1 mM BLT alone) [µg/mL] | Average lowering of TFA in medium compared to controls (PC3 cells; 10 μM FSAHA-treated PC3 cells) [µg/mL] | Level of TFA in cellular growth medium (PC3 cells; PC3 cells, 10 μM FSAHA in the presence of 1 mM BLT) [µg/mL] | Lowering of TFA in medium calculated from the BLT increase (PC3 cells; assuming all TFA from BLT cleavage is removed into the medium, 10 μM FSAHA) [µg/mL] | Induction of Hsp70 (Western blot) (Hsp70) | c-Raf-1 protein level (Western blot) (c-Raf-1) | cdk4 protein level (Western blot) (cdk4)
1 | substrate of HDAC8 | low solubility | CC(C)(C)OC(=O)N[C@@H](CCCCNC(=O)C(F)(F)F)C(=O)O [BLT, Boc-Lys-TFA-OH] | 5 ± 0.4 | – | – | – | – | – | –
2 | – | – | O=C(CCCCCCC(=O)Nc1ccc(F)cc1)NO [FSAHA, 4-Fluorosuberanilohydroxamic acid] | – | 1.6 | 3.4 ± 0.7 | 1.3 | not observed | depletion | depletion
